In one assay the target is CYP2C9 (Homo sapiens, UniProt P11712). The assay can be described thus: CYP2C9 inhibition (fluorescent substrate MFC). It is filed as in vitro ADME. Particulars: read-out: Cyp IC50 2C9. Put shortly: (§1)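 Compounds, serially diluted 1:1 over 10 points in NADPH-regenerating cofactor mix with 5% acetonitrile, were preincubated 10 min at 37 °C, then run with enzyme and substrate at 37 °C (CYP1A2 15 min; CYP2C9 45 min; CYP2C19, CYP2D6 30 min). Product fluorescence gave IC50s.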

A further assay addresses CYP2C19 (Homo sapiens, UniProt P33261). The assay can be described thus: CYP2C19 inhibition (fluorescent substrate CEC). It is filed as in vitro ADME. Particulars: read-out: Cyp IC50 2C19. Put shortly: as §1
The target of another assay is T1, BCR-FMS BaF3 cells (Homo sapiens, UniProt P07333).
T1 construct: fused on or other part: P11274 (Breakpoint cluster region protein)
T1 sequence (P07333 582-910): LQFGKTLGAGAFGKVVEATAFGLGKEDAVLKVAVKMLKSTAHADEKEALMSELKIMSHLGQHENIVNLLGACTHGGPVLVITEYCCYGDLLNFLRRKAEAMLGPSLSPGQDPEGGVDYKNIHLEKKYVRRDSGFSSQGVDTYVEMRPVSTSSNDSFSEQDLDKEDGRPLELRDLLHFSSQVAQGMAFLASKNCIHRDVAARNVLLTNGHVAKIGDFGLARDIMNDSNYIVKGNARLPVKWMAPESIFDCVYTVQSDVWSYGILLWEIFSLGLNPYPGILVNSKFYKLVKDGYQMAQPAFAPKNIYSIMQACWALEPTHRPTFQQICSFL
Description: BaF3 BCR-FMS cell proliferation assay (ATPlite). It is filed as cell-based. The conditions noted are these: read-out: Inhibition of Cell Proliferation IC50, BCR/BaF3 Fms. Put shortly:
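Growth inhibition over 3 days at 37 °C; IC50 from ATPlite luminescence, 8 concentrations (1:3 steps, max 10 μM). BaF3 fusion lines were tested without IL-3.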
Background: ATP-based viability assays read luminescence as a measure of living cells.

Chain of CYP2C9 (P11712 whole entry): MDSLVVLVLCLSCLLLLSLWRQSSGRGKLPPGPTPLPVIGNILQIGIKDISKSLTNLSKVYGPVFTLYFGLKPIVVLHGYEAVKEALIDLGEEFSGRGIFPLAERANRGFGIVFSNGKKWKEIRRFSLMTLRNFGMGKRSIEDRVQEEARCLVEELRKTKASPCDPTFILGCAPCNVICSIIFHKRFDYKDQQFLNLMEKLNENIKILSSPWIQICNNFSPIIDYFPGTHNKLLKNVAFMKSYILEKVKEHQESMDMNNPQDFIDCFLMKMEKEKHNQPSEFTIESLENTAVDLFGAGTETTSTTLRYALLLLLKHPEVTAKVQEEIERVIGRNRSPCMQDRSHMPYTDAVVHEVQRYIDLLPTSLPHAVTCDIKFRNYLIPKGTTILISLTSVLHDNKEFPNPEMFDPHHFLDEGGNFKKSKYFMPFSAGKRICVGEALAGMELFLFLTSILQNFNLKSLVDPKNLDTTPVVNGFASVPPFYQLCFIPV
Chain of CYP2C19 (P33261 whole entry): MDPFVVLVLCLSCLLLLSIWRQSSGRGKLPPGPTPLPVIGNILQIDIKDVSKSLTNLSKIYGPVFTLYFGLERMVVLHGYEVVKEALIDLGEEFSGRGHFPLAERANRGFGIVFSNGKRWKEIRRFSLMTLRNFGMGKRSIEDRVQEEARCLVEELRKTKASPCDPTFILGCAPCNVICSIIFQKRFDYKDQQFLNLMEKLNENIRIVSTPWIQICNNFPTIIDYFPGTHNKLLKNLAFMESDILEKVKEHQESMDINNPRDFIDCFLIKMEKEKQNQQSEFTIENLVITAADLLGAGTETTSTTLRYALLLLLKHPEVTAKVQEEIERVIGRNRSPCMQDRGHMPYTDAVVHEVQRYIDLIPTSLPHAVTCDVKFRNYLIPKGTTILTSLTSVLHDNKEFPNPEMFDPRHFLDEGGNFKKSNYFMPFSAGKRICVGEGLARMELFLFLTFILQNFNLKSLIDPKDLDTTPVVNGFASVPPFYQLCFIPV

On to `CNc1ncnc2[nH]cc(C(=O)c3ccc(Nc4ccc(C)nc4)nc3F)c12` [Compound P-4115, [2-fluoro-6-[(6-methyl-3-pyridyl)amino]-3-pyridyl]-[4-(methylamino)-7H-pyrrolo[2,3-d]pyrimidin-5-yl]methanone], for which the values for the IC50 on CYP2C9, at CYP2C19 and on BCR-FMS BaF3 cells were < 5 µM, < 5 µM and < 0.01 µM, respectively.

Turning to `CCc1ccc(Nc2ccc(C(=O)c3c[nH]c4ncnc(NC5CCOCC5)c34)c(F)n2)cn1` [Compound P-4116, [6-[(6-ethyl-3-pyridyl)amino]-2-fluoro-3-pyridyl]-[4-(tetrahydropyran-4-ylamino)-7H-pyrrolo[2,3-d]pyrimidin-5-yl]methanone], the IC50 at CYP2C9 is > 10 µM; on CYP2C19, > 10 µM; at BCR-FMS BaF3 cells, < 0.01 µM.

`CCc1ccc(Nc2ccc(C(=O)c3c[nH]c4ncnc(NC(C)C)c34)c(F)n2)cn1` [Compound P-4117, [6-[(6-ethyl-3-pyridyl)amino]-2-fluoro-3-pyridyl]-[4-(isopropylamino)-7H-pyrrolo[2,3-d]pyrimidin-5-yl]methanone]: the IC50 is 5 to 10 µM on CYP2C9, > 10 µM at CYP2C19 and < 0.01 µM on BCR-FMS BaF3 cells.

In the case of `CCc1ccc(Nc2ccc(C(=O)c3c[nH]c4ncnc(NCC5CC5)c34)c(F)n2)cn1` [Compound P-4118, [4-(cyclopropylmethylamino)-7H-pyrrolo[2,3-d]pyrimidin-5-yl]-[6-[(6-ethyl-3-pyridyl)amino]-2-fluoro-3-pyridyl]methanone], the IC50 on CYP2C9 is > 10 µM; at CYP2C19 it was > 10 µM; at BCR-FMS BaF3 cells it was < 0.01 µM.

With `CCc1ccc(Nc2ccc(C(=O)c3c[nH]c4ncnc(NCCOC)c34)c(F)n2)cn1` [Compound P-4119, [6-[(6-ethyl-3-pyridyl)amino]-2-fluoro-3-pyridyl]-[4-(2-methoxyethylamino)-7H-pyrrolo[2,3-d]pyrimidin-5-yl]methanone], the IC50 on CYP2C9 was > 10 µM; on CYP2C19, > 10 µM; on BCR-FMS BaF3 cells it was < 0.01 µM.

On to `CCc1ccc(Nc2ccc(C(=O)c3c[nH]c4ncnc(NCC(F)(F)F)c34)c(F)n2)cn1` [Compound P-4120, [6-[(6-ethyl-3-pyridyl)amino]-2-fluoro-3-pyridyl]-[4-(2,2,2-trifluoroethylamino)-7H-pyrrolo[2,3-d]pyrimidin-5-yl]methanone], for which the IC50 on CYP2C9 was < 5 µM; on CYP2C19, < 5 µM; at BCR-FMS BaF3 cells, < 0.1 µM.

For the compound `CCc1ccc(Nc2ccc(C(=O)c3c[nH]c4ncnc(NCC(C)C)c34)c(F)n2)cn1` [Compound P-4121, [6-[(6-ethyl-3-pyridyl)amino]-2-fluoro-3-pyridyl]-[4-(isobutylamino)-7H-pyrrolo[2,3-d]pyrimidin-5-yl]methanone], the IC50 on CYP2C9 was > 10 µM; at CYP2C19 it was 5 to 10 µM; on BCR-FMS BaF3 cells it was < 0.01 µM.

In the case of `CCCNc1ncnc2[nH]cc(C(=O)c3ccc(Nc4ccc(CC)nc4)nc3F)c12` [Compound P-4122, [6-[(6-ethyl-3-pyridyl)amino]-2-fluoro-3-pyridyl]-[4-(propylamino)-7H-pyrrolo[2,3-d]pyrimidin-5-yl]methanone], the IC50 at CYP2C9 was 5 to 10 µM; at CYP2C19 it was > 10 µM; on BCR-FMS BaF3 cells, < 0.01 µM.

For `CCNc1ncnc2[nH]cc(C(=O)c3ccc(Nc4ccc(CC)nc4)nc3F)c12` [Compound P-4123, [4-(ethylamino)-7H-pyrrolo[2,3-d]pyrimidin-5-yl]-[6-[(6-ethyl-3-pyridyl)amino]-2-fluoro-3-pyridyl]methanone], the IC50 on CYP2C9 is > 10 µM; on CYP2C19 it was > 10 µM; at BCR-FMS BaF3 cells it was < 0.01 µM.

Consider `CCc1ccc(Nc2ccc(C(=O)c3c[nH]c4ncnc(NC)c34)c(F)n2)cn1` [Compound P-4124, [6-[(6-ethyl-3-pyridyl)amino]-2-fluoro-3-pyridyl]-[4-(methylamino)-7H-pyrrolo[2,3-d]pyrimidin-5-yl]methanone], for which the IC50 at CYP2C9 was < 5 µM; at CYP2C19, < 5 µM; on BCR-FMS BaF3 cells it was < 0.01 µM.

Consider `CCc1ccc(Nc2ccc(C(=O)c3c[nH]c4ncnc(NC5CC5)c34)c(F)n2)cn1` [Compound P-4125, [4-(cyclopropylamino)-7H-pyrrolo[2,3-d]pyrimidin-5-yl]-[6-[(6-ethyl-3-pyridyl)amino]-2-fluoro-3-pyridyl]methanone], for which the figures for the IC50 on CYP2C9, at CYP2C19 and at BCR-FMS BaF3 cells were > 10 µM, > 10 µM and < 0.01 µM, respectively.

Consider `COc1ccc(Nc2ccc(C(=O)c3c[nH]c4ncnc(NC5CC5)c34)c(F)n2)cn1` [Compound P-4126, [4-(cyclopropylamino)-7H-pyrrolo[2,3-d]pyrimidin-5-yl]-[2-fluoro-6-[(6-methoxy-3-pyridyl)amino]-3-pyridyl]methanone], for which the IC50 on CYP2C9 is > 10 µM; on CYP2C19 it was > 10 µM; at BCR-FMS BaF3 cells, < 0.01 µM.

With `Fc1cc(Cc2c[nH]c3ncnc(NC4CC4)c23)cnc1NC1CCC(F)(F)CC1` [Compound P-4127, N-cyclopropyl-5-[[6-[(4,4-difluorocyclohexyl)amino]-5-fluoro-3-pyridyl]methyl]-7H-pyrrolo[2,3-d]pyrimidin-4-amine], the IC50 is > 10 µM on CYP2C9, 5 to 10 µM on CYP2C19 and < 0.01 µM on BCR-FMS BaF3 cells.

These data come from US8901118B2, “Compounds and methods for kinase modulation, and indications therefor” (Plexxikon Inc., priority 2010, dated 2014).
